# Assay results: US11957739B2, “Compositions and methods for treating cancer using RHOA dominant negative forms” (Dana-Farber Cancer Institute, Inc., priority 2017, dated 2024)
# Legend:
# [1] = test system: CDH1-null cells; experiment: Ectopic expression of RHOA dominant negative forms in CDH1-null cells; type: cell-based
# From the text: (§1) Diffuse Gastric Cancer (DGC) is a highly lethal variant of gastric cancer, which is prone to early invasion and metastasis, and lacks effective molecularly targeted therapies. DGC initiation typically follows loss of tumor suppressor CDH1 which encodes the cellular adhesion protein E-cadherin. Reduction in and/or loss of E-cadherin (CDH1) is the key hallmark of invasive lobular breast cancer and loss-of-function mutations targeting CDH1 are present in 50%-60% of invasive lobular breast cancer and are believed to be an early event often observed in matching lobular carcinoma in situ (McCart Reed et al. (2015) Breast Cancer Res. 17:12). […] These findings indicate that RHOA dominant negative forms can be used as an effective therapy for DGC and lobular breast cancer as well as other cancers with the EMT phenotype.
# [2] = test system: cells with intact CDH1; experiment: Ectopic expression of RHOA dominant negative forms in cells with intact CDH1; type: cell-based
# From the text: as §1
# [3] = test system: CDH1-null stomach organoids; experiment: RHOA ectopic expression in isogenic stomach organoids after tamoxifen-induced E-cadherin loss; type: cell-based, mouse; conditions: ectopic expression by lentivirus; Mist1CreER, Cdh1F/F organoids treated with tamoxifen to induce E-cadherin loss
# Description: Mist1CreER, Cdh1^F/F organoids were infected with plx307 lenti-EGFP/RHOA-WT/RHO-T19N virus, and the stably infected organoids were selected by adding puro for 1 week. The cells were then treated with or without tamoxifen to activate Cre to induce E-cadherin loss. The RHOA ectopic expression and E-Cadherin loss were validated both Western blot and Tomato/GFP color switch determinations.
# Mist1-CreERT2, Cdh1flox/flox, Tomation/GFP mice, which carry conditional alleles with loxP sites flanking exon 2-3 of Cdh1, were kindly provided by Timothy C. Wang at Columbia University. Cre recombinase was activated by oral administration of tamoxifen (Sigma, T5648) TAM (1-5 mg/0.2 ml corn oil, as indicated). All animal studies and procedures were approved by the ethics committees at Dana-Farber Cancer Institute.
# The protocol as previously described in Miyoshi et al. (2013) Nat. Prot. 8:2471-2482 was performed as follows: Euthanize mice using a chemical reagent, open the stomach longitudinally and roughly remove contents on the paper towel. Rinse the tissue with ice cold PBS in a 90 mm petri dish, then wash the tissue with […] ice cold PBS in a 50 ml centrifuge tube by vigorous shaking. After washing, place the tissue in a 35 mm petri dish and bring the dish to a biological hood and mince the tissue with fine scissors. […]
# [4] = test system: CDH1-null breast epithelial MCF10A cells; experiment: Cell titer glo assay in MCF10A-CDH1-KO cells with Dox-inducible RHOA mutant virus; type: cell-based; conditions: Dox-inducible expression
# Description: (§2) Isogenic MCF10A-CDH1-intact cells were infected with different constitutive RHOA mutant virus and the stably infected cells were selected by adding puro for 1 week. The cells were then plated in 96-well plates for analysis using a cell titer glo assay. The MCF10A-CDH1-K0 cells were infected with different Dox-inducible RHOA mutant viruses and the stably-infected cells were selected by adding puro for 1 week. The cells were then plated in 96-well plates with Dox induction for cell titer glo assay analysis.
# (§3) Cell viability assay was performed by following the protocol of CellTiter-Glo® (Promega, Cat #G7570).
# [5] = test system: CDH1-intact MCF10A cells; experiment: Cell titer glo assay in isogenic MCF10A-CDH1-intact cells with constitutive RHOA mutant virus; type: cell-based; conditions: constitutive expression
# Description: as §2, §3
# [6] = test system: NUGC4 tumor; experiment: NUGC4 xenograft tumor growth with Dox-induced mutant RHOA expression; type: in vivo; conditions: E-cadherin loss DGC cells in flank of nude mice; Dox food after 2 weeks; P<0.0001 Ctrl vs T19N
# Description: (§4) Diffuse gastric cancer (DGC) NUGC4 cells were confirmed for total E-cadherin loss by Western blot analysis. The cells were then stably infected with Dox-inducible lenti-RHOA virus using puro selection. Three million NUGC4 cells were injected into the flank of nude mice. After 2 weeks, regular food was changed to food with Dox in order to induce mutant RHOA expression. N=3 mice for each group. P<0.0001: Ctrl-VS-T19N.
# (§5) The 4-week-old male nude mice (BALB/cA-nu (nu/nu)) were injected subcutaneously at each flank with cells infected with dox inducible control or RHOA mutant virus. All animals were maintained and used in accordance with the guidelines of the Institutional Animal Care and Use Committee of Dana-Farber Cancer Institute.
# [7] = test system: MKN45 tumor; experiment: MKN45 xenograft tumor growth with Dox-induced mutant RHOA expression; type: in vivo; conditions: E-cadherin loss diffuse adenocarcinoma cells in flank of nude mice; Dox food after 2 weeks; P<0.0001 Ctrl vs T19N
# Description: as §4, with “The diffuse adenocarcinoma MKN45” for “Diffuse gastric cancer (DGC) NUGC4”, “MKN45” for “NUGC4”
# as §5
Substance,cell-death in CDH1-null cells [1],proliferation of CDH1-null cells [1],inhibition of proliferation and induction of cell-death in cells with intact CDH1 [2],killing of CDH1-null stomach organoids [3],killing of CDH1-null MCF10A cells [4],effect on CDH1-intact MCF10A cells [5],NUGC4 tumor growth [6],MKN45 tumor growth [7]
"G17V: Human RHOA G17V dominant negative form (SEQ ID NO: 2), ectopically expressed",induction of cell-death,significant inhibition of proliferation,not in cells with intact CDH1,,,,,
"RHOA-T19N: Human RHOA T19N dominant negative form (SEQ ID NO: 1), ectopically expressed from lentivirus",induction of cell-death,significant inhibition of proliferation,not in cells with intact CDH1,specifically kills,specifically kills,spares,significantly inhibit,significantly inhibit
"G17E: Human RHOA G17E dominant negative form (SEQ ID NO: 3), ectopically expressed",induction of cell-death,significant inhibition of proliferation,not in cells with intact CDH1,,,,,
